Assays:
BT-474 cancer cells = test: Inhibitory activity against proliferation of BT-474 cancer cells (CellTiter-Glo); type: cell-based; settings: Homo sapiens, BT-474 ErbB2-overexpressing cancer cells, 120 hours after treatment
Method: To evaluate the inhibitory activity of a compound according to the present invention against the proliferation of ErbB2-overexpressing cancer cells, the following experiment were performed.
10% FBS-added McCOY'S 5A was used for SK-BR-3 cancer cells. 20% FBS-added RPMI-1640 was used for BT-474 cancer cells. Transduced Ba/F3 cells were cultured in a RPMI-1640 medium to which 1 μg/ml puromycin (Invitrogen) was added.
48 hours before compound treatment, each type of the SK-BR-3 and BT-474 cells were seeded at 5,000 cells/well in a white clear bottom 96 well plate (Corning). The compound was diluted in dimethyl sulfoxide (SK-BR-3: 3-fold dilution, a total of 12 concentrations, BT-474: […], a total of 12 concentrations) and injected at 1 μl to have the final concentration of 0.2 nM to 5 μM. As for measurement of live cells, 120 hours after treatment with the compound, a CellTiter-Glo luminescent cell-viability reagent (Promega) was used to store the cells at room temperature for 10 minutes, followed by measurement of luminescence using a reader (SynergyNeo, Biotek). Each test was repeated three times.
The result values were calculated as a cell growth rate (%) compared to the control group. A graph was plotted using the GraphPad Prism version 8.3.0 program, and GI50 values were calculated.

SK-BR-3 cancer cells = test: Inhibitory activity against proliferation of SK-BR-3 cancer cells (CellTiter-Glo); type: cell-based; settings: Homo sapiens, SK-BR-3, 120 h, ErbB2-overexpressing SK-BR-3 cells, 120 hours after treatment
How it was run: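 GI50 derived from % growth relative to control, measured by CellTiter-Glo luminescence after 120 h compound exposure (12 concentrations, 0.2 nM-5 μM final, n=3). BT-474 grown in RPMI-1640/20% FBS, SK-BR-3 in McCOY'S 5A/10% FBS; seeding 48 h pre-treatment.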

SMILES | GI50 (BT-474 cancer cells) | GI50 (SK-BR-3 cancer cells)
C=CC(=O)Nc1cc(Nc2cc(N3OCC[C@@H]3c3cccc(-c4ccc(O)nc4)c3)ncn2)c(OC)cc1N(C)CCN(C)C [Example 301, (R)-N-(2-((2-(dimethylamino)-ethyl)(methyl)-amino)-5-((6-(3-(3-(6-hydroxy-pyridin-3-yl)phen-yl)-isoxazolidin-2-yl)pyrimidin-4-yl)amino)-4-meth-oxyphenyl)acryl-amide] | < 50 nM | 50 to 500 nM
C=CC(=O)Nc1cc(Nc2cc(N3OCC[C@@H]3c3cccc(-c4ccc(F)cc4F)c3)ncn2)c(OC)cc1N1CCN(C)CC1 [Example 281, (R)-N-(5-((6-(3-(2′,4′-difluoro-[1,1′-biphenyl]-3-yl)isoxazolidin-2-yl)pyrimidin-4-yl)-amino)-4-methoxy-2-(4-methylpiper-azin-1-yl)phenyl)-acrylamide] | < 50 nM | < 50 nM
C=CC(=O)Nc1cc(Nc2cc(N3OCC[C@@H]3c3cccc(C#Cc4ccccc4)c3)ncn2)c(OC)cc1N(C)CCN(C)C [Example 297, (R)-N-(2-((2-(dimethylamino)-ethyl)(methyl)-amino)-4-methoxy-5-((6-(3-(3-(phen-ylethynyl)phenyl)-isoxazolidin-2-yl)-pyrimidin-4-yl)-amino)phenyl)-acrylamide] | < 50 nM | < 50 nM
C=CC(=O)Nc1cc(Nc2cc(N3OCC[C@@H]3c3cccc(-c4ccccc4)c3)ncn2)c(OC)cc1N1CCC(N2CCN(C3CC3)[C@@H](C)C2)CC1 [Example 231, N-(5-((6-((R)-3-([1,1′-biphenyl]-3-yl)isoxazolidin-2-yl)pyrimidin-4-yl)amino)-2-(4-((S)-4-cycloprop-yl-3-methylpiper-azin-1-yl)piperidin-1-yl)-4-methoxy-phenyl)acrylamide] | < 50 nM | < 50 nM
C=CC(=O)Nc1cc(Nc2cc(N3OCCC3c3ccc(F)c(OCc4cccc(F)c4)c3)ncn2)c(OC)cc1N1CCN(C)CC1 (stereo not shown) [Example compound 151, N-(5-((6-(3-(4-fluoro-3-((3-fluorobenzyl)oxy)phenyl)isoxazolidin-2-yl)pyrimidin-4-yl)amino)-4-methoxy-2-(4-methylpiperazin-1-yl)phenyl)acrylamide] | < 50 nM | < 50 nM
C=CCN1CCN(c2cc(OC)c(Nc3cc(N4OCC[C@@H]4c4cccc(-c5ccccc5)c4)ncn3)cc2NC(=O)C=C)CC1 [Example 174, (R)-N-(5-((6-(3-([1,1′-biphenyl]-3-yl)isoxazolidin-2-yl)pyrimidin-4-yl)amino)-2-(4-allylpiperazin-1-yl)-4-methoxy-phenyl)acrylamide] | < 50 nM | < 50 nM
C=CC(=O)Nc1cc(Nc2cc(N3OCC[C@@H]3c3cccc(-c4cccc(C(F)(F)F)c4F)c3)ncn2)c(OC)cc1N(C)CCN(C)C [Example 280, (R)-N-(2-((2-(dimethylamino)-ethyl)(methyl)-amino)-5-((6-(3-(2′-fluoro-3′-(trifluoromethyl)-[1,1′-biphenyl]-3-yl)isoxazolidin-2-yl)pyrimidin-4-yl)-amino)-4-methoxy-phenyl)acrylamide] | < 50 nM | < 50 nM
C=CC(=O)Nc1cc(Nc2cc(N3OCC[C@@H]3c3cccc(C#CC(C)(C)O)c3)ncn2)c(OC)cc1N(C)CCN(C)C [Example 309, (R)-N-(2-((2-(dimethylamino)-ethyl)(methyl)-amino)-5-((6-(3-(3-(3-hydroxy-3-methylbut-1-yn-1-yl)phenyl)isoxazol-idin-2-yl)pyrim-idin-4-yl)amino)-4-methoxyphen-yl)acrylamide] | < 50 nM | < 50 nM
C=CC(=O)Nc1cc(Nc2cc(N3OCCC3c3cccc(OCc4ccccn4)c3)ncn2)c(OC)cc1N(C)CCN(C)C (stereo not shown) [Example compound 95, N-(2-((2-(dimethylamino)ethyl)(methyl)amino)-4-methoxy-5-((6-(3-(3-(pyridin-2-ylmethoxy)phenyl)isoxazolidin-2-yl)pyrimidin-4-yl)amino)phenyl)acrylamide] | < 50 nM | < 50 nM
C=CC(=O)Nc1cc(Nc2cc(N3OCC[C@@H]3c3cccc(-c4ccc(OC)nc4)c3)ncn2)c(OC)cc1N(C)CCN(C)C [Example 300, (R)-N-(2-((2-(dimethylamino)-ethyl)(methyl)-amino)-4-methoxy-5-((6-(3-(3-(6-methoxypyridin-3-yl)phenyl)isox-azolidin-2-yl)pyr-imidin-4-yl)amino)-phenyl)acrylamide] | < 50 nM | < 50 nM
C=CC(=O)Nc1cc(Nc2cc(N3OCC[C@@H]3c3cccc(-c4cccc(C(=O)N(C)C)c4)c3)ncn2)c(OC)cc1N1CCN(C)CC1 [Example 342, (R)-3′-(2-(6-((5-acrylamido-2-methoxy-4-(4-methylpiperazin-1-yl)phenyl)-amino)pyrimidin-4-yl)isoxazolidin-3-yl)-N,N-dimeth-yl-[1,1′-biphenyl]-3-carboxamide] | < 50 nM | –
C=CC(=O)Nc1cc(Nc2cc(N3OCC[C@@H]3c3cccc(-c4cccc(F)c4)c3)ncn2)c(OC)cc1N1CC2(C1)CN(C1COC1)C2 [Example 341, (R)-N-(5-((6-(3-(3′-fluoro-[1,1′-biphenyl]-3-yl)-isoxazolidin-2-yl)-pyrimidin-4-yl)-amino)-4-methoxy-2-(6-(oxetan-3-yl)-2,6-diazaspiro-[3.3]heptan-2-yl)-phenyl)acrylamide] | < 50 nM | –

Next, values leading:

GI50 (BT-474 cancer cells) | GI50 (SK-BR-3 cancer cells) | SMILES
< 50 nM | < 50 nM | C=CC(=O)Nc1cc(Nc2cc(N3OCC[C@@H]3c3cccc(-c4cccc(F)c4)c3)ncn2)c(OC)cc1N1CC2(C1)CN(S(C)(=O)=O)C2 [Example 322, (R)-N-(5-((6-(3-(3′-fluoro-[1,1′-biphenyl]-3-yl)-isoxazolidin-2-yl)-pyrimidin-4-yl)-amino)-4-methoxy-2-(6-(methylsulfon-yl)-2,6-diazaspiro-[3.3]heptan-2-yl)-phenyl)acrylamide]
< 50 nM | < 50 nM | C=CC(=O)Nc1cc(Nc2cc(N3OCC[C@@H]3c3cccc(-c4cccc(F)c4)c3)ncn2)c(OC)cc1N1C[C@@H](C)O[C@@H](C)C1 [Example 292, N-(2-((2S,6R)-2,6-dimethylmorpho-lino)-5-((6-((R)-3-(3′-fluoro-[1,1′-biphenyl]-3-yl)-isoxazolidin-2-yl)-pyrimidin-4-yl)-amino)-4-methoxy-phenyl)acrylamide]
< 50 nM | < 50 nM | C=CC(=O)Nc1cc(Nc2cc(N3OCC[C@@H]3c3cccc(-c4cccc(F)c4)c3)ncn2)c(OC)cc1N1CCN(CCN(C)C)CC1 [Example 304, (R)-N-(2-(4-(2-(dimethylamino)-ethyl)piperazin-1-yl)-5-((6-(3-(3′-fluoro-[1,1′-biphen-yl]-3-yl)isoxazol-idin-2-yl)pyrim-idin-4-yl)amino)-4-methoxyphenyl)-acrylamide]
50 to 500 nM | < 50 nM | C=CC(=O)Nc1cc(Nc2cc(N3OCC[C@@H]3c3cccc(-c4cccc(F)c4)c3)ncn2)c(OC)cc1N1CCN(C2COC2)CC1 [Example 293, (R)-N-(5-((6-(3-(3′-fluoro-[1,1′-biphenyl]-3-yl)-isoxazolidin-2-yl)-pyrimidin-4-yl)-amino)-4-methoxy-2-(4-(oxetan-3-yl)-piperazin-1-yl)-phenyl)acrylamide]
< 50 nM | 50 to 500 nM | C=CC(=O)Nc1cc(Nc2cc(N3OCC[C@@H]3c3cccc(-c4cccc(F)c4)c3)ncn2)c(OC)cc1N1CCN2CCCC2C1 (stereo partly drawn) [Example 318, N-(5-((6-((R)-3-(3′-fluoro-[1,1′-biphenyl]-3-yl)-isoxazolidin-2-yl)-pyrimidin-4-yl)-amino)-2-(hexa-hydropyrrolo[1,2-a]pyrazin-2(1H)-yl)-4-methoxy-phenyl)acrylamide]
< 50 nM | < 50 nM | C=CC(=O)Nc1cc(Nc2cc(N3OCC[C@@H]3c3cccc(-c4cccc(F)c4)c3)ncn2)c(OC)cc1N1CCN(C(C)=O)CC1 [Example 289, (R)-N-(2-(4-acetyl-piperazin-1-yl)-5-((6-(3-(3′-fluoro-[1,1′-biphenyl]-3-yl)isoxazolidin-2-yl)pyrimidin-4-yl)-amino)-4-methoxy-phenyl)acrylamide]
< 50 nM | < 50 nM | C=CC(=O)Nc1cc(Nc2cc(N3OCC[C@@H]3c3cccc(-c4cccc(F)c4)c3)ncn2)c(OC)cc1N1CCS(=O)(=O)CC1 [Example 290, (R)-N-(2-(1,1-dioxidothiomorph-olino)-5-((6-(3-(3′-fluoro-[1,1′-biphen-yl]-3-yl)isoxazol-idin-2-yl)pyrim-idin-4-yl)amino)-4-methoxyphen-yl)acrylamide]
< 50 nM | – | C=CC(=O)Nc1cc(Nc2cc(N3OCC[C@@H]3c3cccc(-c4cccc(F)c4)c3)ncn2)c(OC)cc1N1CCC2(CC1)CN(C)C2 [Example 343, (R)-N-(5-((6-(3-(3′-fluoro-[1,1′-biphenyl]-3-yl)-isoxazolidin-2-yl)-pyrimidin-4-yl)-amino)-4-methoxy-2-(2-methyl-2,7-diazaspiro[3.5]-nonan-7-yl)phen-yl)acrylamide]
